What was measured:
Experiment in all cases: Post-emergence application in field trials
Format in all cases: in vivo
[1] = test system: AMAPA (Amaranthus palmeri); settings: Glyphosate (EPSPS) resistant AMAPA, height 5-23 cm; A-1 50 g ai/ha, B-6 840 g ai/ha; 21 DAT; water volume 140 l/ha; 1% v/v MSO + 2.5% v/v AMS
Description: (§1) In the examples below, using the method of S. R. Colby (1967) “Calculating synergistic and antagonistic responses of herbicide combinations”, Weeds 15, p. 22ff., the value E, which is expected if the activity of the individual active compounds is only additive, was calculated:
(§2) [formula] • where • X=percent activity using active herbicide A at an application rate a; • Y=percent activity using active glyphosate at an application rate b; • E=expected activity (in %) by A+B at application rates a+b.
(§3) For 3- and 4-component mixtures (examples 3-5) the synergistic response was calculated as described in: Ferry, Nancy; Stanley, Bruce H.; and Armel, Gregory (2005). “DESIGN AND ANALYSIS OF BIOLOGICAL ASSAYS OF MIXTURES,” Conference on Applied Statistics in Agriculture. https://doi.org/10.4148/2475-7772.1133. According to this publication, the Colby calculation can be generalized to a third mixing partner, Z, employing the following formula: […]
(§4) If the value found experimentally is higher than the value E calculated according to Colby, a synergistic effect is present.
(§5) On field test sites, natural weed infestation or seeded weeds were treated post-emergence of the weeds.
(§6) In the field trials, the weedy plants were treated as indicated below.
(§7) Herbicide A-1 (342 g/I), glyphosate (480 g/I or 575 g/l) and optional herbicide C were, together with addition of 0.5% v/v MSO (methylated seed oil) as adjuvant (unless indicated otherwise), formulated in water as distribution medium as indicated and sprayed with commercial flat fan nozzles.
(§8) In the following experiments, the herbicidal activity for the individual herbicidal compositions (solo and mixture applications) was assessed at the indicated days after treatment (DAT). The assessments for the damage on undesired weeds caused by the composition was carried out using a scale from 0 to 100%, compared to the untreated control plants. Here, 0 means no damage and 100 means complete destruction of the plants.

[2] = test system: AMARE (Amaranthus retroflexus)
Description: as §1, §2, §3, §4, §5, §6, §7, §8

[3] = test system: BRADC (Brachiaria decumbens); settings: A-1 50 g ai/ha, B-6 1080 g ai/ha, 21 DAT, water volume 100 l/ha, 0.5% v/v MSO
Description: as §1, §2, §3, §4, §5, §6, §7, §8

[4] = test system: COMBE (Commelina benghalensis); settings: B-6 1080 g ai/ha, 21 DAT, water volume 200 l/ha, 0.5% v/v MSO
Description: as §1, §2, §3, §4, §5, §6, §7, §8

[5] = test system: DIGIN = TRCIN (Digitaria insularis); settings: height 20-30 cm, A-1 50 g ai/ha, B-6 1080 g ai/ha, 7 DAT, water volume 200 l/ha, 0.5% v/v MSO
Description: as §1, §2, §3, §4, §5, §6, §7, §8

[6] = test system: ECHCG (Echinocloa crus-galli); settings: growth stage 23-30, height 15-20 cm, water volume 200 l/ha, 0.25% v/v MSO
Description: as §1, §2, §3, §4, §5, §6, §7, §8

ELEIN (Eleusine indica) = settings: growth stage 23-25, height 3-5 cm, A-1 25 g ai/ha, B-6 1080 g ai/ha, 20 DAT, water volume 200 l/ha, 0.5% v/v MSO
Description: as §1, §2, §3, §4, §5, §6, §7, §8

[7] = test system: GLXMA (Glycine max (soybean)); settings: glyphosate-tolerant volunteer soybean M 6210 IPRO (GLXMA), growth stage 18; A-1 25 g ai/ha, B-6 1080 g ai/ha; 21 DAT; water volume 200 l/ha; 0.5% v/v MSO
Description: as §1, §2, §3, §4, §5, §6, §7, §8

IPOTR (Ipomoea triloba) = settings: B-6 1080 g ai/ha, 21 DAT, water volume 200 l/ha, 0.5% v/v MSO
Description: as §1, §2, §3, §4, §5, §6, §7, §8

PANMA (Panicum maximum) = settings: A-1 25 g ai/ha, B-6 1080 g ai/ha, 21 DAT, water volume 100 l/ha, 0.5% v/v MSO
Description: as §1, §2, §3, §4, §5, §6, §7, §8

[8] = test system: SPCHI (Spermacoce hispida); settings: height 25 cm, A-1 25 g ai/ha, B-6 1080 g ai/ha, 21 DAT, water volume 100 l/ha, 0.5% v/v MSO
Description: as §1, §2, §3, §4, §5, §6, §7, §8

ZEAMX (Zea mays (maize)) = settings: glyphosate-tolerant volunteer corn RB 9006 PRO 2 (ZEAMX), growth stage 18; A-1 25 g ai/ha, B-6 1080 g ai/ha; 21 DAT; water volume 200 l/ha; 0.5% v/v MSO
Description: as §1, §2, §3, §4, §5, §6, §7, §8

AMATU = settings: growth stage 19, height 10-20 cm, A-1 50 g ai/ha, B-6 840 g ai/ha, 23 DAT, water volume 140 l/ha, 1% v/v MSO + 2.5% v/v AMS
Description: as §5, §6, §7, §8

[9] = test system: HORVW (Hordeum vulgare (barley)); settings: HORVW volunteer crop, growth stage 23-29, height 20-25 cm; A-1 + C-4 12.5 + 12.5, B-6 840, C-1 12.5 g ai/ha; 7 DAT; water volume 200 l/ha; 0.25% v/v MSO
Description: as §1, §2, §3, §4, §5, §6, §7, §8

[10] = growth stage 19, height 10-20 cm, A-1 50 g ai/ha, B-6 840 g ai/ha, 23 DAT, water volume 140 l/ha, 1% v/v MSO + 2.5% v/v AMS
[11] = ECHCG, A-1 12.5, B-6 840, C-1 12.5 g ai/ha, 7 DAT
[12] = ECHCG, A-1 12.5, B-6 840, C-1 12.5 g ai/ha, 28 DAT
[13] = ECHCG, A-1 12.5, B-6 840, C-4 12.5 g ai/ha, 7 DAT
[14] = growth stage 32, height 12 cm, A-1 + B-6 12.5 + 840, C-1 12.5, C-4 12.5 g ai/ha, 42 DAT, water volume 200 l/ha, 0.25% v/v MSO
[15] = Table 5.1: ECHCG, A-1 + C-1 12.5 + 12.5, B-6 840, C-4 12.5 g ai/ha, 7 DAT
[16] = Table 5.2: ECHCG, A-1 + C-4 12.5 + 12.5, B-6 840, C-1 12.5 g ai/ha, 7 DAT

Compound | % Herbicidal activity [1] | % Herbicidal activity [2, 10] | % Herbicidal activity [3] | % Herbicidal activity ([4]; A-1 25 g ai/ha) | % Herbicidal activity ([4]; A-1 50 g ai/ha) | % Herbicidal activity [5] | % Herbicidal activity [6, 11] | % Herbicidal activity [6, 12] | % Herbicidal activity [6, 13] | % Herbicidal activity (ELEIN (Eleusine indica)) | % Herbicidal activity [7] | % Herbicidal activity (IPOTR (Ipomoea triloba); A-1 25 g ai/ha) | % Herbicidal activity (IPOTR (Ipomoea triloba); A-1 50 g ai/ha) | % Herbicidal activity (PANMA (Panicum maximum)) | % Herbicidal activity [8] | % Herbicidal activity (ZEAMX (Zea mays (maize))) | % Herbicidal activity (AMATU) | % Herbicidal activity [2, 14] | % Herbicidal activity [6, 15] | % Herbicidal activity [6, 16] | further results
CCOC(=O)COc1ccccc1Oc1nc(-n2c(=O)cc(C(F)(F)F)n(C)c2=O)c(F)cc1Cl [A-1, ethyl 2-[2-[[3-chloro-5-fluoro-6-[3-methyl-2,6-dioxo-4-(trifluoromethyl)pyrimidin-1-yl]-2-pyridyl]oxy]phenoxy]acetate] | 74% | 73% | 71% | 60% | 82% | 58% | 30% | 20% | 30% | 82% | 93% | 82% | 88% | 73% | 30% | 53% | 73% | – | – | – | –
C#CCN1C(=O)C(F)(F)Oc2cc(F)c(-n3c(=O)n(C)c(=S)n(C)c3=O)cc21 [C-4, trifludimoxazin] | – | – | – | – | – | – | – | – | 20% | – | – | – | – | – | – | – | – | 45% | 20% | – | –
O=C(O)CNCP(=O)(O)O [B-6, glyphosate-potassium] | 10% | 50% | 75% | 30% | 30% | 2% | 70% | 94% | 70% | 68% | 0% | 30% | 30% | 75% | 20% | 0% | 50% | – | 70% | 70% | % Herbicidal activity [9]: 80%
CC(C)N(C)S(=O)(=O)NC(=O)c1cc(-n2c(=O)cc(C(F)(F)F)n(C)c2=O)c(F)cc1Cl [C-1, saflufenacil] | – | – | – | – | – | – | 20% | 20% | – | – | – | – | – | – | – | – | – | 55% | – | 20% | % Herbicidal activity [9]: 0%

From patent publication US12653189B2, “Herbicidal compositions comprising glyphosate” (BASF SE, priority 2023, dated 2026)
